The IC50 is the concentration that gives 50% inhibition.

In patent publication US20210198277A1, “AMINE-SUBSTITUTED ARYL OR HETEROARYL COMPOUNDS” (Epizyme, Inc., priority 2016, published 2021) one finds IC50 data, which are given here for 33 molecules.

One assay concerns the target T1, human EHMT2 913-1193 (Homo sapiens, UniProt Q96KQ7).
T1 construct: recombinant purified human EHMT2 913-1193, Viva; purchased Viva
T1 sequence (Q96KQ7 913-1193): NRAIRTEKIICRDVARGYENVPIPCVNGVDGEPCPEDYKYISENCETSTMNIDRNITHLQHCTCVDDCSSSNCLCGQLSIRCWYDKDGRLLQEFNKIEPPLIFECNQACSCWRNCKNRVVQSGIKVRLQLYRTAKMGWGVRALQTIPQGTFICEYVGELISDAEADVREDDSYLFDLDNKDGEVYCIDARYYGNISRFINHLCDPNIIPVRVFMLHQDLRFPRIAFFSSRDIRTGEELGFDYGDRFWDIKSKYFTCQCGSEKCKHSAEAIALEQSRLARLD
The assay is described as follows: EHMT2 enzyme assay on histone peptide substrate (EHMT2 PEP). The following applies: read-out: EHMT2 PEP (IC50 μM). The assay is classed as biochemical. Summed up: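 Compounds (10-point, 3-fold dilutions, top 50 μM final, 2% DMSO) preincubated 30 min with 0.031 nM EHMT2 in 20 mM Bicine pH 7.5, 0.002% Tween 20, 0.005% gelatin, 1 mM TCEP. Biotinylated histone peptide methylated with ^3H-SAM 60 min at room temperature. Quenched with unlabeled SAM; product captured on streptavidin Flashplate, scintillation counted.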

For another assay, the target named is T2, EHMT1 (Homo sapiens, UniProt Q9H9B1).
T2 sequence (Q9H9B1 1-1298): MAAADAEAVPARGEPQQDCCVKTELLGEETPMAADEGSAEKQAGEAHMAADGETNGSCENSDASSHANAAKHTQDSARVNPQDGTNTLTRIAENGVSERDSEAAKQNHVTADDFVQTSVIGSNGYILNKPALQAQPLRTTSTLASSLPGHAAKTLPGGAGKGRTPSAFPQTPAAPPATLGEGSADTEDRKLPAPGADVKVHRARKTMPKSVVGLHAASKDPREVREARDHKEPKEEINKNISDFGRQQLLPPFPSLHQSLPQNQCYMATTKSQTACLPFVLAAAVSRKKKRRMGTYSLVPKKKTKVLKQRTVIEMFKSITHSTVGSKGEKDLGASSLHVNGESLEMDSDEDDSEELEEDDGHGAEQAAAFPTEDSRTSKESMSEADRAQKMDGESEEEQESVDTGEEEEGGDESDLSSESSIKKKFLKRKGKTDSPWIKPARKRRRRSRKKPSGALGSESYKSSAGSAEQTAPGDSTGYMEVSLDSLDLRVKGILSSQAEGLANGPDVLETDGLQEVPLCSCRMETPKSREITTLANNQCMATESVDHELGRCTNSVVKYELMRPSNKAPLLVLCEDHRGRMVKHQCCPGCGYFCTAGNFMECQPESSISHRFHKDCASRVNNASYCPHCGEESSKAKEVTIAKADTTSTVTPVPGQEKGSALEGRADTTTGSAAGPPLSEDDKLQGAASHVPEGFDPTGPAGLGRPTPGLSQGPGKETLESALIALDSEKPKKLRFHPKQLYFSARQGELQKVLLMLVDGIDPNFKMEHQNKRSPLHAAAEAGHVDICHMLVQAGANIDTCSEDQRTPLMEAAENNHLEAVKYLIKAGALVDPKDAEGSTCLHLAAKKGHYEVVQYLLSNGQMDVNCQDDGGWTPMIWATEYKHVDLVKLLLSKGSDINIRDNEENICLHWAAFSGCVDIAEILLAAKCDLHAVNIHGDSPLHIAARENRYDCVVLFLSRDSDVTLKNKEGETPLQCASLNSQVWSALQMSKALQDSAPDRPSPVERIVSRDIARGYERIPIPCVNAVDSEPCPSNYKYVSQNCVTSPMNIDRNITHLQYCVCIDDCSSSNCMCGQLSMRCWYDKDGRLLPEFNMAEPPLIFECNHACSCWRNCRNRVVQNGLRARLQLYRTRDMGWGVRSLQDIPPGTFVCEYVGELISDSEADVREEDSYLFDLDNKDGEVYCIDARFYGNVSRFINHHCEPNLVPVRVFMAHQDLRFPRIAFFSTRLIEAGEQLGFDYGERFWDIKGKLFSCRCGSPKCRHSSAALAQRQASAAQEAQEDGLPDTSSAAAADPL
The assay is described as follows: EHMT1 enzyme assay on peptide substrate (EHMT1 PEP). The assay is classed as biochemical. The following applies: read-out: EHMT1 PEP (IC50 μM).

Like-named read-outs stand apart in the source and are kept apart here.

Turning to `CCN1CCC(COc2cc(Nc3nccc(NC)n3)ccc2OC)C1` (stereo not drawn) [Compound 408, N^2-(3-((1-ethylpyrrolidin-3-yl)methoxy)-4-methoxyphenyl)-N^4-methylpyrimidine-2,4-diamine], the IC50 at human EHMT2 913-1193 (Table III) and at EHMT1 (Table III) was 0.1 to 1 µM in each case.
For `CNc1ccnc(Nc2ccc3cnn(CCN(C)C)c3c2)n1` [Compound 386], the IC50 at human EHMT2 913-1193 (Table III) and on EHMT1 (Table III) was above 10 µM throughout.
In the case of `COc1ccc(Nc2ccnc3[nH]ccc23)cc1OCCCN1CCCC1` [Compound 374], the IC50 on human EHMT2 913-1193 (Table III) and on EHMT1 (Table III) was 1 to 10 µM each time.
For the molecule `COc1ccc(Nc2nccc(NC3CCN(C(C)=O)CC3)n2)cc1OCCCN1CCCC1` [Compound 54], the IC50 at human EHMT2 913-1193 (Table II) and at EHMT1 (Table II) was 0.1 to 1 µM throughout.
For `COc1ccc(Nc2nccc(NCC3CCOCC3)n2)cc1OC1CC2(C1)CN(C)C2` [Compound 367], the IC50 at human EHMT2 913-1193 (Table III) and at EHMT1 (Table III) was above 10 µM in each case.
Regarding `COc1ccc(Nc2nccc3[nH]ncc23)cc1OCCCN1CCCC1` [Compound 373], the IC50 at human EHMT2 913-1193 (Table III) and at EHMT1 (Table III) was above 10 µM each time.
Consider `CCNC(=O)c1cccc(Nc2nccc(NC)n2)c1` [Compound 394], for which the IC50 at human EHMT2 913-1193 (Table III) and at EHMT1 (Table III) was above 10 µM throughout.
In the case of `CNc1ccnc(Nc2ccc3c(c2)N(C(=O)CCN(C)C)CC3)n1` [Compound 363], the IC50 at human EHMT2 913-1193 (Table III) and on EHMT1 (Table III) was above 10 µM in each case.
For the molecule `CNc1ccnc(Nc2cccc(COCCN3CCCC3)c2)n1` [Compound 383], the IC50 on human EHMT2 913-1193 (Table III) and at EHMT1 (Table III) was 1 to 10 µM in each case.
Take `CNc1ccnc(Nc2ccc(OC)c(OCC3CCN(CC4CC4)C3)c2)n1` (stereo not drawn) [Compound 422, N^2-(3-((1-(cyclopropylmethyl)pyrrolidin-3-yl)methoxy)-4-methoxyphenyl)-N^4-methylpyrimidine-2,4-diamine]: the IC50 on human EHMT2 913-1193 (Table III) and at EHMT1 (Table III) was 0.1 to 1 µM in each case.
Consider `CNc1ccnc(Nc2ccc(Cl)c(OCCCN3CCCC3)c2)n1` [Compound 398], for which the IC50 at human EHMT2 913-1193 (Table III) and on EHMT1 (Table III) was 0.1 to 1 µM in each case.
Consider `COc1ccc(Nc2nccc(NCC3CCN(CC(F)(F)F)CC3)n2)cc1OCCCN1CCCC1` [Compound 4, N^2-(4-methoxy-3-(3-(pyrrolidin-1-yl)propoxy)phenyl)-N^4-((1-(2,2,2-trifluoroethyl)piperidin-4-yl)methyl)pyrimidine-2,4-diamine], for which the IC50 is below 0.1 µM at human EHMT2 913-1193 (Table II) and 0.1 to 1 µM on EHMT1 (Table II).
`CNc1ccnc(Nc2ccc(OC)c(OC[C@@H](O)CN3CCCC3)c2)n1` (single isomer, unassigned) [Compound 377]: the results for the IC50 at human EHMT2 913-1193 (Table III) and on EHMT1 (Table III) were 1 to 10 µM and above 10 µM, respectively.
Turning to `CNc1cnnc(Nc2ccc(OC)c(OCCCN3CCCC3)c2)c1` [Compound 370], the IC50 at human EHMT2 913-1193 (Table III) and at EHMT1 (Table III) was 0.1 to 1 µM throughout.
As to `CNc1cc(OC)nc(Nc2ccc(OC)c(OCCCN3CCCC3)c2)n1` [Compound 261, 6-methoxy-N^2-(4-methoxy-3-(3-(pyrrolidin-1-yl)propoxy)phenyl)-N^4-methylpyrimidine-2,4-diamine], the IC50 at human EHMT2 913-1193 (Table III) and at EHMT1 (Table III) was above 10 µM in each case.
With `CNc1ccnc(Nc2ccc(F)c(OCCCN3CCCC3)c2)n1` [Compound 368], the IC50 on human EHMT2 913-1193 (Table III) and on EHMT1 (Table III) was above 10 µM throughout.
Consider `COc1ccc(Nc2nccc(NCC3CCN(CC(F)F)CC3)n2)cc1OCCCN1CCCC1` [Compound 2, N^4-((1-(2,2-difluoroethyl)piperidin-4-yl)methyl)-N^2-(4-methoxy-3-(3-(pyrrolidin-1-yl)propoxy)phenyl)pyrimidine-2,4-diamine], for which the IC50 at human EHMT2 913-1193 (Table II) and on EHMT1 (Table II) was below 0.1 µM each time.
With `COc1ccc(Nc2nccc(NC(C)C3CCOCC3)n2)cc1OCCCN1CCCC1` (stereo not drawn) [Compound 378], the IC50 at human EHMT2 913-1193 (Table III) and on EHMT1 (Table III) was 0.1 to 1 µM each time.
Turning to `CNc1ccnc(Nc2ccc3cnn(CCCN(C)C)c3c2)n1` [Compound 388, N^2-(1-(3-(dimethylamino)propyl)-1H-indazol-6-yl)-N^4-methylpyrimidine-2,4-diamine], the IC50 at human EHMT2 913-1193 (Table III) and on EHMT1 (Table III) was above 10 µM each time.
`CNc1ccnc(Nc2ccc3c(c2)C(=O)N(CCN2CCCC2)CC3)n1` [Compound 264, 7-((4-(methylamino)pyrimidin-2-yl)amino)-2-(2-(pyrrolidin-1-yl)ethyl)-3,4-dihydroisoquinolin-1(2H)-one]: the IC50 at human EHMT2 913-1193 (Table III) and on EHMT1 (Table III) was above 10 µM throughout.
Consider `c1cc(Nc2nccc(NCC3CCNCC3)n2)cc(OCCCN2CCCC2)c1` [Compound 88], for which the IC50 at human EHMT2 913-1193 (Table II) and on EHMT1 (Table II) was 0.1 to 1 µM each time.
As for `CC(C)Nc1ccnc(Nc2cccc(OCCCN3CC[C@@H](F)C3)c2)n1` [Compound 375], the IC50 at human EHMT2 913-1193 (Table III) and on EHMT1 (Table III) was above 10 µM each time.
Turning to `COc1ccc(Nc2nccc(NC3CCOCC3)n2)cc1OCCCN1CCCC1` [Compound 5, N^2-(4-methoxy-3-(3-(pyrrolidin-1-yl)propoxy)phenyl)-N^4-(tetrahydro-2H-pyran-4-yl)pyrimidine-2,4-diamine], the IC50 on human EHMT2 913-1193 (Table II) and at EHMT1 (Table II) was 0.1 to 1 µM throughout.
`COc1ccc(Nc2nccc3[nH]ccc23)cc1OCCCN1CCCC1` [Compound 266, N-(4-methoxy-3-(3-(pyrrolidin-1-yl)propoxy)phenyl)-1H-pyrrolo[3,2-c]pyridin-4-amine]: the IC50 on human EHMT2 913-1193 (Table III) and on EHMT1 (Table III) was 1 to 10 µM each time.
Regarding `CNc1cc(C)nc(Nc2ccc(OC)c(OCC3CCN(C)C3)c2)n1` (single isomer, unassigned) [Compound 418], the IC50 at human EHMT2 913-1193 (Table III) and at EHMT1 (Table III) was below 0.1 µM in each case.
Regarding `CNc1ccnc(Nc2cccc(N3CCC(N(C)C)C3)c2)n1` (stereo not drawn) [Compound 397], the IC50 at human EHMT2 913-1193 (Table III) and on EHMT1 (Table III) was above 10 µM each time.
For the molecule `CNc1cc(C)nc(Nc2ccc(OC)c(OCC3CCCN(C)C3)c2)n1` (stereo not drawn) [Compound 413, N^2-(4-methoxy-3-((1-methylpiperidin-3-yl)methoxy)phenyl)-N^4,6-dimethylpyrimidine-2,4-diamine], the IC50 on human EHMT2 913-1193 (Table III) and at EHMT1 (Table III) was 0.1 to 1 µM each time.
For `COc1ccc(Nc2nccc(CNC3CCOCC3)n2)cc1OCCCNc1ccccc1` [Compound 365], the IC50 at human EHMT2 913-1193 (Table III) and on EHMT1 (Table III) was above 10 µM each time.
Regarding `CNc1nccc(Nc2ccc(OC)c(OCCCN3CCCC3)c2)n1` [Compound 355], the IC50 at human EHMT2 913-1193 (Table III) and on EHMT1 (Table III) was below 0.1 µM throughout.
As for `CNc1ccnc(Nc2ccc(OC)c(OCC3CCN(C(C)C)C3)c2)n1` (stereo not drawn) [Compound 409, N^2-(3-((1-isopropylpyrrolidin-3-yl)methoxy)-4-methoxyphenyl)-N^4-methylpyrimidine-2,4-diamine], the IC50 on human EHMT2 913-1193 (Table III) and at EHMT1 (Table III) was below 0.1 µM each time.
Turning to `COc1ccc(Nc2ncc(C)c(NCC3CCN(C(C)=O)CC3)n2)cc1OCCCN1CCCC1` [Compound 55], the IC50 on human EHMT2 913-1193 (Table II) and on EHMT1 (Table II) was 0.1 to 1 µM in each case.
As to `CNc1nc(Nc2ccc(OC)c(OCCCN3CCCC3)c2)nc(C)c1F` [Compound 360], the IC50 on human EHMT2 913-1193 (Table III) and on EHMT1 (Table III) was 0.1 to 1 µM in each case.
On to `CNc1ccnc(Nc2ccc(OC)c(OCCCN3CCCC3)c2)n1` [Compound 1, N^2-(4-methoxy-3-(3-(pyrrolidin-1-yl)propoxy)phenyl)-N^4-methylpyrimidine-2,4-diamine], for which the IC50 at human EHMT2 913-1193 (Table II) and on EHMT1 (Table II) was below 0.1 µM each time.
